Experimental findings from patent US11952362B2, “Compositions and methods for treating epigenetic disease” (The Regents of the University of California, priority 2018, dated 2024) are described below.

Type in all cases: cell-based
Experiment [1] concerns NCI-460 lung cancer cell line. Description: Cell viability assay (CellTiter Glo), NCI-460. Conditions: 120 h; NCI-460, 20 uM, day 5; read-out: % growth inhibition. The protocol: (§1) Pancreatic cancer cell lines (MIA PaCa-2 and CAPAN-2) were purchased from ATCC. MIA PaCa-2 were grown in DMEM and CAPAN-2 in McCoy's 5A (Gibco). Colon cancer cell lines (SW480 and HT-29) were purchased from ATCC. SW480 were grown in Leibovitz's L-15 (ATCC) and HT-29 in McCoy's 5A (Gibco). Lung cancer cell lines (NCI 460 and NCI 1975) were purchased from ATCC and grown in RPMI 1640 (Gibco). PC-3 prostate cancer cell line was purchased from ATCC and grown in F-12K (ATCC). Bladder cancer cell line 5637 was purchased from ATCC and RT-112 was purchased from Sigma-Aldrich and was grown in RPMI 1640 (Gibco). […] IL1B and TNFA mRNA levels were measured by qPCR analysis as described previously (Fang K et al. Am J Pathol, 188(3):586-99, 2018).
(§2) 1.8×10^3 cells/well were plated in quadruplicates in 96-well plate and treated with exogenously added MJK analogues 6 hours after plating. […] Cell growth was assessed 1, 3, 5 or 7 days after plating using the CellTiter Glo Luminescence Cell Viability Assay (Promega) according to manufacturer's protocol. For the experiments where the effect of combinatorial treatment of MJK-004 analogues with chemotherapy was assessed, treatment of cells with gemcitabine (10 nM) or 5-fluouracil (2000 nM) was performed one day after MJK-004 treatment and the cells were further treated with exogenously added MJK analogues 2 days later. […]
(In general: Cellular ATP, detected with luciferase, serves as a proxy for viable cell number.)

For experiment [2], the system named is CAPAN-2 pancreatic cancer cell line. Description: Cell viability assay (CellTiter Glo), CAPAN-2. As to conditions: Homo sapiens, 120 h; CAPAN-2, 20 uM, day 5; read-out: % growth inhibition. The protocol: as §1, §2
Experiment [3] deals with PC-3 prostate cancer cell line. Description: Cell viability assay (CellTiter Glo), PC-3. As to conditions: 120 h; PC-3, 20 uM, day 5; read-out: % growth inhibition. The protocol:
as §1, §2

Experiment [4] concerns SW480 colon cancer cell line. As to the kind of experiment: Cell viability assay (CellTiter Glo), SW480. As to conditions: Homo sapiens, 120 h; SW480, 20 uM, day 5; read-out: % growth inhibition. On the procedure: as §1, §2
For experiment [5], the system named is RT-112 bladder cancer cells. As to the kind of experiment: Anchorage-independent cell growth assay (colonies in soft agar). Conditions: RT-112, treated at 1xIC50 or 2xIC50 for 3 days. The protocol:
Quadruplicate samples of 1×10^6 bladder cancer cells, that were previously untreated or treated with the MJK-004 at the concentration corresponding to the 1×IC50 or 2×IC50 for each cell line (as assessed at the third day after cells' plating and treatment) for 3 days, were assayed in 96-well plates for colony formation using the CytoSelect Cell Transformation kit (Cell Biolabs, Inc) according to manufacturer's protocol. Seven days later, live cells were detected using a colorimetric format. The MTT dye was added directly to the cultured cells followed by a detergent solution. Quantitation was performed using a standard microplate reader at 540-570 nm. Data were expressed as the mean±S.D.

One may read the inhibition as the share of the control response that was lost under treatment.

On to `Cn1c(/C=C/C(=O)NO)ccc1/C=C/C(=O)c1cccc(F)c1` [MJK001, (E)-3-(5-((E)-3-(3-Fluorophenyl)-3-oxoprop-1-en-1-yl)-1-methyl-1H-pyrrol-2-yl)-N-hydro-xyacrylamide], for which the inhibition at 20 µM worked out at 3.42% in experiment [1], 42.7% in experiment [2], 26.8% in experiment [3] and 58.4% in experiment [4].

Consider `Cn1c(/C=C/C(=O)NO)ccc1/C=C/C(=O)c1cccs1` [MJK004, (E)-N-hydroxy-3-(1-methyl-5-((E)-3-oxo-3-(thiophen-2-yl)prop-1-en-1-yl)-1H-pyrrol-2-yl)acrylamide], for which, in experiment [5], the “ability to form colonies in soft agar” value was “reduced significantly”.
